Data from patent publication US4844894A, “Method of inhibiting the onset of septicemia and endotoxemia” (priority 1986, dated 1989).

Key:
chick embryos = test: Chick embryo 50% lethal dose assay (CELD50); type: in vivo
Procedure: A sensitive measure of endotoxin toxicity is the chick embryo 50% lethal dose assay (CELD50). In this test, chick embryos at 10 days of age are injected with varying doses of the material to be tested. […] Using the chick embryo test, a comparison was made of the toxicity of radiation-detoxified endotoxin with the parent endotoxin as well as with MPL.

Phosphorous content = type: physicochemical; conditions: Percent by weight
septicemia = test: Nonspecific resistance to septicemia induced in mice by cecal ligation and puncture; type: in vivo, NMRI mice; conditions: 1 μg, ip, 24 hr prior surgery
Procedure: 14 NMRI mice were pretreated with one microgram of MPL administered by intraperitoneal injection. 24 hours later each of the mice underwent surgery wherein the cecum of each mouse was ligated and punctured to internally expose the mice to microorganisms capable of instigating the onset of septicemia. […] A second group of mice were subjected to surgery in precisely the same way without pretreatment with MPL.

[1] = system: endotoxin (E. coli 0111:B 4); test: Non-septic endotoxemia: endotoxin (E. coli 0111:B4) challenge ip in mice; type: in vivo; conditions: 100 ug MPL ip day 0
Procedure: (§1) A model for non-septic endotoxemia is to inject mice intraperitoneally (ip) with endotoxin. […] Depending on the dose, death may occur within about 72 hours. The LD50 can be determined by injecting groups of mice with different doses of endotoxin, and noting the number of survivors in each group. The protective effect of a given treatment is evidenced by an increase in the LD50 of the endotoxin challenge.
(§2) In this embodiment, mice were injected ip on day 0 with either 100 ug MPL in 0.25 ml saline (treatment group) or else saline alone (control group). On day 3, mice in both groups received an ip injection containing one of several different doses of endotoxin (E. coli 0111:B 4). There were 8 mice at each endotoxin dose level. The doses for the control group were […] endotoxin. The doses for treatment group were 0.75, 1.00, 1.25, 1.50, 2.0, and 2.5 mg endotoxin. […] The LD50 for each group was calculated using the method of Reed and Meuench (ibid.). […] Since only 2 mice dies at the highest endotoxin dose in the treatment group, the LD50 the LD50 could not be calculated for this group. It is evident, however, that it would be well above 2.5 mg, probably around 5-6 mg. This would correspond to at least a 4 to 5 fold increase in the LD50 following treatment with MPL.

[2] = system: endotoxin from E. coli K235; test: Non-septic endotoxemia: endotoxin from E. coli K235 challenge ip in mice; type: in vivo; conditions: pre-treated with 100 ug MPL
Procedure: as §1, §2
In another experiment the LD50 's for both the control and the treatment groups were successfully determined. The experimental design was essentially the same as that described above except that the endotoxin used was obtained from E. coli K235.

E. coli 055B5 [3] = test: Septic endotoxemia: challenge with 5 LD50's of live E. coli 055B5 in mice; type: in vivo; conditions: 50 ug MPL ip on days 0 and 1; challenge on day 2
Procedure: (§3) Injection of mice ip with live E. coli provides a good model of gram-negative sepsis and associated endotoxemia, since E. coli readily sheds endotoxin. In this model, a known quantity of live E. coli are injected, and the survivors are counted for an appropriate number of days. The effectiveness of a treatment is evidenced by an increase in the survivorship for a treated group.
In the experiment, 10 mice were given ip injections of 50 ug MPL on days 0 and 1. They therefore received a total of 100 ug MPL. The control group received only saline. All mice were challenged on day 2 with 5 LD50 's of E. coli 055B5 organisms, also injected ip. All control animals died, whereas all treated animals (10/10) survived.

E. coli 055B5 [4] = test: Septic endotoxemia: challenge with 30 LD50's of E. coli 055B5 in mice; type: in vivo; conditions: 25, 25 and 50 ug MPL ip on days 0, 1 and 2; challenge on day 2
Procedure: as §3
In a manner similar to that employed in Example 3, 10 mice were given ip injections on days 0, 1 and 2 of 25, 25 and 50 ug MPL, respectively, corresponding to a total of 100 ug MPL for each mouse. Mice in the control group received only saline. On day 2, all mice received a challenge consisting of 30 LD50 's of E. coli 055B5. This corresponds to an overwhelming challenge dose. No mice in the control group survived, while 50% animals (5/10) in the treatment group survived.

rabbits [5] = conditions: Table B, ref (2); cited from earlier work
rabbits [6] = conditions: Table B, refs (1), (3); cited from earlier work
[7] = relative to parent endotoxin; cited from earlier work
rabbits [8] = conditions: Table B, refs (1), (2); cited from earlier work
[9] = 120 hrs after induction of septicemia

## CCCCCCCCCCCCCC(=O)OC(CCCCCCCCCCC)CC(=O)OC1C(NC(=O)CC(CCCCCCCCCCC)OC(=O)CCCCCCCCCCC)C(OCC2OC(O)C(NC(=O)CC(O)CCCCCCCCCCC)C(OC(=O)CC(O)CCCCCCCCCCC)C2O)OC(CO)C1OP(=O)(O)O (stereo not shown) [MPL, Monophosphoryl Lipid A]
Chick embryos; at any dose, footnote to Table A
  eggs killed in CELD50 test: No eggs killed at any dose
Chick embryos; chick embryos at 10 days of age, survivors at 24 hours
  CELD50: > 20 µg
Chick embryos; text conclusion from Table A
  toxicity in CELD50 assay, in words: essentially no toxicity
Phosphorous content
  Phosphorous Content: 1.8%
septicemia
  effect on onset of septicemia, in words: inhibits the onset of septicemia
septicemia; [9]
  % Survival: 71%
  Dead/Total: 4/14
[1]; 2.5 mg endotoxin day 3, 8 mice per dose level
  mice dying at the highest endotoxin dose: 2 mice
[1]; endotoxin ip day 3
  fold increase in LD50 of endotoxin following treatment: 4 to 5 fold
[2]
  LD50 of endotoxin in pre-treated mice: 1.16 mg
  increase (factor) in LD50 of endotoxin: ~5 factor
  symptoms of endotoxemia: did not show any of the usual symptoms of endotoxemia
E. coli 055B5 [3]
  treated animals survived: 10/10
E. coli 055B5 [4]
  animals survived in treatment group: 5/10
  survival, % of animals in treatment group: 50%
Rabbits [5]
  LD50 in rabbits: > 8,000 mcg/kg
Rabbits [6]
  Local Shwartzman Reaction in rabbits (area of hemorrhagic lesion): < 10 mm^2
[7]
  toxicity in all of the Table B assays, in words: only negligible toxicity
Rabbits [8]
  Pyrogenicity in rabbits (difference between basic and maximal body temperature): 0 °C
